Experiment [1] deals with HIV NL4-3 envelope. Kind of experiment: TOPO cell mediated fusion assay, NL4-3 envelope. The class given is cell-based. The following applies: envelope NL4-3; linear envelope expression element; Hela H1 effector and target cells, luciferase; read-out: BMS-806 EC50 TOPO Cell Fusion.
Experimental: (§1) Preparation of Linear HIV Envelope Expression Element HIV viral RNA was isolated from 140 μl culture supernatant using a QIAamp Viral RNA Mini Kit (Qiagen Inc). The viral RNA was eluted in 60 μl of elution buffer. First strand cDNA was synthesized using the SuperScript First-Strand Synthesis system for RT-PCR (Invitrogen Corporation) using 8 μl of viral RNA and random hexamers according to the manufactures instructions. The HIV envelope gene was PCR amplified using 4 μl of first strand CDNA, primers BF17 5′-[sequence]-3′ and ENV-N 5′-[sequence]-3′ and a Platimun Taq DNA Polymerase High Fidelity Kit (Invitrogen) in a 100 μl reaction. The PCR product was purified using a QIAquick PCR Purification Kit (Qiagen Inc, Valencia, Calif.). In order to introduce the proper ends for the TOPO reaction 1 μl of the first PCR reaction was PCR amplified using primers:
(§2) in 100 μl as before. The PCR reaction was run on a 0.7% agarose gel and the about 3 kb HIV envelope gene was gel purified using a QIAquick Gel Extraction KIT (Qiagen Inc). The 5′ CMV promoter element and 3′ SV40 polyadenylation element were added to 700 ng of the HIV envelope PCR fragment using a TOPO Tools Kit (Invitrogen) and the final PCR product was purified as before. […]
Experiment [2] concerns HIV NL4-3 whole virus. The experiment in a line: Whole virus assay, NL4-3. The class given is cell-based. The settings on record: read-out: BMS-806 EC50 Whole Virus.
Experiment [3] deals with HIV LAI whole virus. Kind of experiment: Whole virus assay, LAI. The following applies: read-out: BMS-806 EC50 Whole Virus. The class given is cell-based.
For experiment [4], the system named is HIV envelope BRH04820. The experiment in a line: TOPO cell mediated fusion assay, clinical envelope BRH04820. The class given is cell-based. The settings on record: clinical envelope BRH04820, source serum; read-out: BMS-806 EC50 TOPO Fusion.
Experimental: (§3) The effector cells were prepared by transfecting 1.7×10^6 Hela H1 cells in a T75 flask with the linear viral envelope expression element and pTET-Off using a Lipofectamine Plus Kit (Invitrogen) as follows. 3 μg of the linear envelope expression vector and 3 μg of pTET-OFF were mixed with 750 μl of D-MEM media. 49 μl of Plus Reagent was added to the DNA mixture, the solution was mixed. After 15 minutes at room temperature a solution consisting of 750 μl D-MEM and 30 μl of lipofectamine was added to the DNA solution. The solution was mixed and incubated at room temperature for 15 minutes. The media from 1.7×10^6 Hela H1 cells ion a T75 flask was removed, the cells were washed with 15 ml of D-PBS, and 6 ml of D-MEM without serum was added to the cells. The DNA/lipofectamine solution was mixed, added to the cells and the cells were then incubated at 37° C. in the presence of 5% CO2. After 4 hours, the transfection mixture was removed and replaced with 15 ml of D-MEM 10% FBS and incubated overnight at 37° C. in the presence of 5% CO2.
(§4) Preparation of Target Cells Hela H1 cells expressing CD4, CXCR4, CCR5, and containing an integrated copy of a TRE/luciferase reporter gene were used as target cells. These cells were maintained in DMEM containing 10% FBS, 0.2 mg/ml G418, 0.4 mg/ml zeocin, 0.1 mg/ml hygromycin B, and 1.5 μg/ml puromycin. […]
The test system of experiment [5] is HIV envelope BRH04821. Kind of experiment: TOPO cell mediated fusion assay, clinical envelope BRH04821. The class given is cell-based. The settings on record: clinical envelope BRH04821, source serum; read-out: BMS-806 EC50 TOPO Fusion.
Experimental: as §3, §4
Experiment [6] relates to HIV envelope 92US072. Kind of experiment: TOPO cell mediated fusion assay, clinical envelope 92US072. Format: cell-based. The following applies: clinical envelope 92US072, source PBMC; read-out: BMS-806 EC50 TOPO Fusion.
Experimental: as §3, §4
The test system of experiment [7] is HIV envelope 93US157. Kind of experiment: TOPO cell mediated fusion assay, clinical envelope 93US157. The class given is cell-based. The settings on record: clinical envelope 93US157, source PBMC; read-out: BMS-806 EC50 TOPO Fusion.
Experimental: as §3, §4
The subject of experiment [8] is HIV BRH04820 whole virus. Kind of experiment: Whole virus assay, BRH04820. The class given is cell-based. The settings on record: BRH04820, source serum; read-out: BMS-806 EC50 Whole Virus.
The subject of experiment [9] is HIV BRH04821 whole virus. Kind of experiment: Whole virus assay, BRH04821. Format: cell-based. The following applies: BRH04821, source serum; read-out: BMS-806 EC50 Whole Virus.
For experiment [10], the system named is HIV 92US072 whole virus. The experiment in a line: Whole virus assay, 92US072. The following applies: 92US072, source PBMC; read-out: BMS-806 EC50 Whole Virus. The class given is cell-based.
Experiment [11] concerns HIV 93US157 whole virus. Kind of experiment: Whole virus assay, 93US157. The following applies: 93US157, source PBMC; read-out: BMS-806 EC50 Whole Virus. Format: cell-based.
Experiment [12] addresses HIV LAI envelope (Human immunodeficiency virus type 1 group M subtype B, UniProt P03377). The following applies: read-out: BMS-806 EC50 TOPO Cell Fusion, linear envelope expression element, Hela H1 effector and target cells, luciferase.
Experimental: as §1, §2

This passage reports EC50 results from US20040106104A1, “Viral envelope mediated fusion assay” (priority 2002, published 2004).

One may read the EC50 as the concentration at which the effect is half-maximal.

As for `COc1ccnc2[nH]cc(C(=O)C(=O)N3CCN(C(=O)c4ccccc4)C[C@H]3C)c12` [BMS-806], the 50% effective concentration (EC50) in experiment [1] was 5.7 nM; in [2] it was 2.1 nM; in [3] it was 2.5 nM; in [4], 5.5 nM; in experiment [5] it was 2.7 nM; in experiment [6] it was 818 nM. Further, the half-maximal effective concentration (EC50) in experiment [7] was determined as 2.3 nM; in experiment [8] it was 5.5 nM; in [9] it was 5.3 nM; in experiment [10], 336 nM; in experiment [11], 3.9 nM; in [12] it was 3.5 nM.
